Measured values: patent EP0022634A1, “Acylated indole derivatives, processes for their preparation and pharmaceutical compositions and drugs comprising them” (TEIJIN LIMITED, priority 1979, dated 1981)
≈ marks a conversion by molar mass, not a printed value.

Assays:
platelet aggregation [1] = assay: extra vivo platelet aggregation inhibiting activity after oral administration, sodium arachidonate as aggregating agent; assay type: in vivo, guinea pigs; settings: Cavia porcellus, 0.03 mM sodium arachidonate; for inhibition at 10 mg/kg: oral dosage 10 mg/kg; for inhibition at 1 mg/kg: oral dosage 1 mg/kg
Experimental: (§1) The platelet aggregation inhibiting activities extra vivo of drugs sampled at random were examined using guinea pigs.
(§2) The drugs were used dissolved in propylene glycol to a concentration of 1 mg/ml (when the dosage was 1 mg/kg), 10 mg/ml (when the dosage was 10 mg/kg), and 30 mg/ml (when the dosage was 30 mg/kg). The drugs were administered orally to male Hartley guinea pigs (three in a group) having a body weight of 300 to 350 g. Propylene glycol was administered to a control group.
(§3) One hour, or 4 hours after the administration, citrated blood was taken out from the subject by cardiac puncture.
(§4) The guinea pigs were caused to fast overnight before use.
(§5) The inhibiting rate of the test drugs was measured as follows: • 450 µℓ of PRP was put into a cuvette of an aggregometer, and then 50 µℓ of the aggregating agent was added. The aggregation curve was recorded for 3 minutes, and the maximum degree of aggregation was measured. As a blank, the maximum degree of aggregation of PRP of the group of guinea pigs to which propylene glycol had been administered was measured. The rate of inhibition was calculated from the following equation. [formula]
(§6) As the aggregating agent, 0.03 mM (final concentration sodium arachidonate and 5 µg/ml (final concentration) collagen floating solution were used.
For details of the extra vivo platelet aggregation inhibiting test, see Davis. H. M., Phyllis, J., Paul, K and Terry, W.: Thromb. […] Haemos.

platelet aggregation [2] = assay: in vitro platelet aggregation inhibiting activity (sodium arachidonate as aggregating agent); assay type: cell-based; settings: Cavia porcellus, Platelet, guinea pigs PRP, final concentration 0.1 millimole, minimum final concentration whose inhibiting rate exceeded 50 %, read-out: IC50
Experimental: The platelet aggregation inhibiting activities in vitro of test drugs including the acylated indole derivatives of this invention were assayed using guinea pigs PRP.
As an aggregating agent, sodium arachidonate having a final concentration of 0.1 millimole was used.
The citrated blood was centrifuged at 1000 rpm for 10 minutes at room temperature, and the supernatant liquid (PRP) was separated.
The resulting PRP was stored at room temperature, and used as early as possible. PRP stored for more than 4 hours was not used.
A compound having a free carboxylic acid as a residue, such as Indomethacin and Ibprofen, was dissolved in O.lM NaHC03 to provide a sodium salt solution having a concentration of 10 mg/ml. The solution was similarly diluted with physiological saline to prepare a solution of a test drug.
The solution was diluted with physiological saline to form a 1mM solution which was used in the test.
50 µℓ of physiological saline and 50 µℓ of the aggregating agent solution were added to 400 µℓ of PRP which had been warmed in a cuvette at 37°C in an aggregometer to aggregate the platelet. The aggregation curve was recorded for 3 minutes by an aggregometer (a product of Bryston Company). The maximum degree of aggregation in this platelet aggregation was defined as the maximum degree of aggregation in the blank.
Then, 50 µℓ of a 1mM solution of sodium arachidonate was added, and the platelet aggregation curve was recorded in the same way as in (1) above. From the curve, the maximum degree of aggregation was calculated, and the inhibiting rate was calculated in accordance with the following equation. Maximum degree of aggregation Inhibiting 100 - in the Ibprofen-added system 100 rate (%) Maximum degree of aggregation in the blank
If these inhibiting rates are not attained, the concentration of the solution of sodium arachidonate is not suitable, and therefore, its concentration should be re-adjusted, and the test shall be performed again.
50 µℓ of the test compound solution was added to 400 µℓ of PRP, and the mixture was pre-incubated in the same way as in(2) above. Then, 50 µℓ of the solution of sodium arachidonate having its concentration adjusted in (2) was added, and the aggregation curve was recorded for 3 minutes. The maximum degree of aggregation of platelet within this period was measured, and the rate of inhibition was calculated from the following equation. […] Maximum degree of aggregation Inhibiting _ 100 - in the drug-added system x 100 rate (%) Maximum degree of aggregation in the blank
For details of the in vitro platelet aggregation inhibiting test, see H. M. Davis, J. Phyllis, K. Paul and W. Terry: Thromb. […] Haemos.

[3] = tested on: mucous membrane of the stomach; assay: Action of causing trouble to the mucous membrane of the stomach (ulcer index); assay type: in vivo, Male S.D. rats; settings: for Incidence / Ulcer Index (mm ± S.E.): fasted rats
Experimental: Male S.D. rats (7 weeks old) were caused to fact for 24 hours while allowing them to drink water freely. A test compound dissolved in propylene glycol was orally administered to these rats, and these rats were kept while causing them to fast. Then, the rats were knocked out to death, and lesions generated in the stomach were measured in the following manner.
Ten minutes before killing the rats, 1% Evans blue was intravenously injected to the rats in a dose of 0.5 ml/rat to stain their body. Then, the rats were knocked out to death, and the stomack was taken out from each rat. 12 ml of 1% formalin was injected into the stomack to inflate it. The stomach was then dipped for more than 10 minutes in a 1% formalin solution, and fixed. After fixing, the stomach was incised along the glandular portion, and the length of a dye-leaked portion that occurred in the stomach was measured under a solid microscope, and defined as the ulcer index (mm).
For details of the test on the action of causing trouble to the mucous membrane of the stomach, see E. Adami, E. Marazzi-Uberti, and C. Turba, Arch, int. Pharmacadyn., 147, 113 (1964).

platelet aggregation [4] = assay: extra vivo platelet aggregation inhibiting activity after oral administration, collagen as aggregating agent; assay type: in vivo, guinea pigs; settings: Cavia porcellus, po
Experimental: The collagent floating solution made by Hormone Company of west Germany was diluted with physiological saline to a concentration of 100 µg/ml for use in the test.
as §1, §2, §3, §4, §5, §6
For details of the extra vivo platelet aggregation inhibiting test, see Davis. H. M., Phyllis, J., Paul, K and Terry, W.: Thromb. Res. 11, 217-226 (1977) and Anderson R. E. and Foulks J. G.: Thromb. Haemos. 36, 343-359 (1976).

platelet aggregation [5] = assay: in vitro platelet aggregation inhibiting activity (sodium arachidonate as aggregating agent); assay type: cell-based, guinea pigs; settings: general statement on investigations of the present inventors; test not specified
[6] = blood taken 1 hour after administration, read-out: Rate of inhibition of platelet aggregation, Sodium arachidonate, After 1 hour
[7] = blood taken 4 hours after administration, read-out: Rate of inhibition of platelet aggregation, Sodium arachidonate, After 4 hours
[8] = oral dosage 200 mg/kg in propylene glycol
[9] = oral dosage 400 mg/kg in propylene glycol
[10] = oral dosage 100 mg/kg in propylene glycol
[11] = 1 h, read-out: Rate of inhibition of platelet aggregation, Collagen, After 1 hour
[12] = 4 h, read-out: Rate of inhibition of platelet aggregation, Collagen, After 4 hours

Structure (SMILES) | inhibition at 10 mg/kg (platelet aggregation [1]; [6]) | inhibition at 10 mg/kg (platelet aggregation [1]; [7]) | IC50 (platelet aggregation [2]) | Incidence [3, 9] | Ulcer Index (mm ± S.E.) [3, 9] | inhibition at 10 mg/kg (platelet aggregation [4]; [11]) | inhibition at 10 mg/kg (platelet aggregation [4]; [12]) | also measured
CCOCC(C)n1c(C)c(C(=O)c2ccccc2)c2ccccc21 (centres unmarked) [(302), 3-Benzoyl-1-(1-ethoxy-2-propyl)-2-methylindole] | 100% | 100% | 0.055 µg/mL (≈ 0.171 µM) | 50% | 0.9 ± 0.3 mm | – | – | Incidence [3, 8]: 33.3%; Ulcer Index (mm ± S.E.) [3, 8]: 0.3 ± 0.2 mm
CCCCC(C)n1c(C)c(C(=O)c2ccccc2)c2ccccc21 (centres unmarked) [(705), 3-Benzoyl-1-(2-hexyl)-2-methylindole] | – | – | – | 0% | 0 mm | – | – | –
COCC(C)n1c(C)c(C(=O)c2ccccc2)c2ccccc21 (centres unmarked) [(300), 3-Benzoyl-1-(1-methoxy-2-propyl)-2-methylindole] | – | – | 0.055 µg/mL (≈ 0.179 µM) | 66.7% | 1.4 ± 0.5 mm | – | – | inhibition at 1 mg/kg (platelet aggregation [1]; [6]): 51.3%; inhibition at 1 mg/kg (platelet aggregation [1]; [7]): 67.5%; Incidence [3, 10]: 40%; Ulcer Index (mm ± S.E.) [3, 10]: 1.1 ± 0.5 mm; Incidence [3, 8]: 55.6%; Ulcer Index (mm ± S.E.) [3, 8]: 1.2 ± 0.3 mm; inhibition at 1 mg/kg (platelet aggregation [4]; [11]): 100%; inhibition at 1 mg/kg (platelet aggregation [4]; [12]): 71.4%
CCCCCC(C)n1c(C)c(C(=O)c2ccccc2)c2ccccc21 (stereo not drawn) [(706), 3-Benzoyl-l-(2-heptyl)-2-methylindole] | – | – | – | 16.7% | 0.1 mm | – | – | –
CCC(CO)n1c(C)c(C(=O)c2ccccc2)c2ccccc21 (centres unmarked) [(101), 3-Benzoyl-1-(1-hydroxy-2-butyl)-2-methylindole] | 99% | 99% | 0.1 µg/mL (≈ 0.325 µM) | – | – | 100% | 100% | –
Cc1c(C(=O)c2ccccc2)c2cc(O)ccc2n1C(C)CO (centres unmarked) [(117), 3-Benzoyl-5-hydroxy-1-(1-hydroxy-2-propyl)-2-methylindole] | 100% | 8.6% | 0.25 µg/mL (≈ 0.808 µM) | – | – | 72.1% | 2.2% | –
CC(C)c1[nH]c2ccccc2c1C(=O)c1cccnc1 [drawing 4, reference compound] | – | – | – | – | – | – | – | tendency to induce ulcer formation ([3]; general statement on investigations of the present inventors, test not specified): unnegligible tendency to induce ulcer formation; action of inhibiting platelet aggregation (platelet aggregation [5]): has an action of inhibiting platelet aggregation
CCC(COC)n1c(C)c(C(=O)c2ccccc2)c2ccccc21 (centres unmarked) [(311), 3-Benzoyl-1-(1-methoxy-2-butyl)-2-methylindole] | 68.8% | 100% | 0.25 µg/mL (≈ 0.778 µM) | – | – | 100% | 81.1% | –
Cc1c(C(=O)c2ccccc2)c2ccccc2n1C(C)CSc1ccccc1 (centres unmarked) [(401), 3-Benzoyl-2-methyl-1-(1-phenylthio-2-propyl)-indole] | 100% | 100% | 0.25 µg/mL (≈ 0.648 µM) | – | – | 100% | 100% | –
CC(=O)OCCC(C)n1c(C)c(C(=O)c2ccccc2)c2ccccc21 (centres unmarked) [(201), 1-(4-acetoxy-2-butyl)-3-benzoyl-2-methylindole] | 100% | 100% | 0.075 µg/mL (≈ 0.215 µM) | – | – | 100% | 100% | –
CCOCCC(C)n1c(C)c(C(=O)c2ccccc2)c2ccccc21 (centres unmarked) [(307), 3-Benzoyl-1-(4-ethoxy-2-butyl)-2-methylindole] | 100% | 100% | 0.25 µg/mL (≈ 0.745 µM) | – | – | 98.3% | 100% | –
CC(C)c1[nH]c2ccccc2c1C(=O)c1cccnc1 [Comparison 3, reference compound] | – | – | 0.075 µg/mL (≈ 0.284 µM) | 100% | 7.9 ± 2.3 mm | – | – | Incidence [3, 10]: 66.7%; Ulcer Index (mm ± S.E.) [3, 10]: 1.5 ± 0.6 mm
